Assay results from PMC6364417, “Kinase inhibitor library screening identifies synergistic drug combinations effective in sensitive and resistant melanoma cells” (Journal of Experimental & Clinical Cancer Research : CR, 2019).

Columns and labels:
Experiment in all cases: Kinase inhibitor library screening, PrestoBlue cell viability, 1 or 10 μM, 72 h
[1] = tested on: A375-XP cells (Vemurafenib-resistant); settings: A375 XP
[2] = tested on: A375-GP cells (Dabrafenib-resistant); settings: A375 GP
[3] = tested on: IGR37 cells (parental); settings: IGR37 Parental
[4] = tested on: 501Mel-GP cells (Dabrafenib-resistant); settings: 501Mel GP
[5] = tested on: IGR37-GP cells (Dabrafenib-resistant); settings: IGR37 GP
[6] = tested on: 501Mel cells (parental); settings: 501Mel Parental
Procedure, shortened: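 Sensitive parental cells and their resistant derivatives were exposed to library compounds for 72 h. Values represent viability as a percentage of untreated cells.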

[7] = tested on: IGR37-XP cells (Vemurafenib-resistant); settings: IGR37 XP
[8] = tested on: 501Mel-XP cells (Vemurafenib-resistant); settings: 501Mel XP
[9] = tested on: A375 cells (parental); settings: A375 Parental

## CO[C@@H](C(=O)N1Cc2n[nH]c(NC(=O)c3ccc(N4CCN(C)CC4)cc3)c2C1)c1ccccc1 [Danusertib (PHA-739358)]
[1]; 1μΜ, 72 h
  cell viability (kinase inhibitor library screening): 53.8%
[1]; 10μΜ, 72 h
  cell viability (kinase inhibitor library screening): 35.5%
[2]; 1μΜ, 72 h
  cell viability (kinase inhibitor library screening): 48.5%
[2]; 10μΜ, 72 h
  cell viability (kinase inhibitor library screening): 27.8%
[3]; 10μΜ, 72 h
  cell viability (kinase inhibitor library screening): 59.2%
[4]; 1μΜ, 72 h
  cell viability (kinase inhibitor library screening): 94.8%
[4]; 10μΜ, 72 h
  cell viability (kinase inhibitor library screening): 72.3%
[5]; 10μΜ, 72 h
  cell viability (kinase inhibitor library screening): 66.0%
[6]; 1μΜ, 72 h
  cell viability (kinase inhibitor library screening): 94.3%
[6]; 10μΜ, 72 h
  cell viability (kinase inhibitor library screening): 80.7%
[7]; 10μΜ, 72 h
  cell viability (kinase inhibitor library screening): 21.3%
[8]; 1μΜ, 72 h
  cell viability (kinase inhibitor library screening): 84.5%
[8]; 10μΜ, 72 h
  cell viability (kinase inhibitor library screening): 58.4%
[9]; 10μΜ, 72 h
  cell viability (kinase inhibitor library screening): 28.0%
[9]; 1μΜ, 72 h
  cell viability (kinase inhibitor library screening): 51.2%

## Cc1nc(Nc2ncc(C(=O)Nc3c(C)cccc3Cl)s2)cc(N2CCN(CCO)CC2)n1 [Dasatinib (BMS-354825)]
[1]; 1μΜ, in %
  cell viability (kinase inhibitor library screening): 70.6
[1]; 10μΜ, in %
  cell viability (kinase inhibitor library screening): 57.8
[2]; 1μΜ, in %
  cell viability (kinase inhibitor library screening): 63.7
[2]; 10μΜ, in %
  cell viability (kinase inhibitor library screening): 48.1
[3]; 1μΜ, in %
  cell viability (kinase inhibitor library screening): 98.7
[3]; 10μΜ, in %
  cell viability (kinase inhibitor library screening): 80.2
[4]; 1μΜ, in %
  cell viability (kinase inhibitor library screening): 96.7
[4]; 10μΜ, in %
  cell viability (kinase inhibitor library screening): 77.1
[5]; 1μΜ, in %
  cell viability (kinase inhibitor library screening): 91.4
[5]; 10μΜ, in %
  cell viability (kinase inhibitor library screening): 66.8
[6]; 1μΜ, in %
  cell viability (kinase inhibitor library screening): 91.7
[6]; 10μΜ, in %
  cell viability (kinase inhibitor library screening): 73.7
[7]; 1μΜ, in %
  cell viability (kinase inhibitor library screening): 88.2
[7]; 10μΜ, in %
  cell viability (kinase inhibitor library screening): 39.8
[8]; 1μΜ, in %
  cell viability (kinase inhibitor library screening): 88.2
[8]; 10μΜ, in %
  cell viability (kinase inhibitor library screening): 63.3
[9]; 1μΜ, in %
  cell viability (kinase inhibitor library screening): 68.7
[9]; 10μΜ, in %
  cell viability (kinase inhibitor library screening): 30.8

## CO[C@H]1C[C@@H]2CC[C@@H](C)[C@@](O)(O2)C(=O)C(=O)N2CCCC[C@H]2C(=O)O[C@H]([C@H](C)C[C@@H]2CC[C@@H](OP(C)(C)=O)[C@H](OC)C2)CC(=O)[C@H](C)/C=C(\C)[C@@H](O)[C@@H](OC)C(=O)[C@H](C)C[C@H](C)/C=C/C=C/C=C/1C [Deforolimus (Ridaforolimus)]
[1]; 1μΜ, 72 h
  Cell viability in kinase inhibitor library screening, A375 XP, 1μΜ: 79.9
[1]; 10μΜ, 72 h
  Cell viability in kinase inhibitor library screening, A375 XP, 10μΜ: 76.9
[2]; 1μΜ, 72 h
  Cell viability in kinase inhibitor library screening, A375 GP, 1μΜ: 79.3
[2]; 10μΜ, 72 h
  Cell viability in kinase inhibitor library screening, A375 GP, 10μΜ: 72.3
[3]; 1μΜ, 72 h, in %
  Cell viability in kinase inhibitor library screening, IGR37 Parental, 1μΜ: 82.2
[3]; 10μΜ, 72 h, in %
  Cell viability in kinase inhibitor library screening, IGR37 Parental, 10μΜ: 86.0
[4]; 1μΜ, 72 h, in %
  Cell viability in kinase inhibitor library screening, 501Mel GP, 1μΜ: 66.5
[4]; 10μΜ, 72 h, in %
  Cell viability in kinase inhibitor library screening, 501Mel GP, 10μΜ: 55.6
[5]; 10μΜ, 72 h
  Cell viability in kinase inhibitor library screening, IGR37 GP, 10μΜ: 76.8%
[5]; 1μΜ, 72 h, in %
  Cell viability in kinase inhibitor library screening, IGR37 GP, 1μΜ: 90.2
[6]; 1μΜ, 72 h, in %
  Cell viability in kinase inhibitor library screening, 501Mel Parental, 1μΜ: 84.8
[6]; 10μΜ, 72 h, in %
  Cell viability in kinase inhibitor library screening, 501Mel Parental, 10μΜ: 82.7
[7]; 10μΜ, 72 h
  Cell viability in kinase inhibitor library screening, IGR37 XP, 10μΜ: 56.1%
[7]; 1μΜ, 72 h, in %
  Cell viability in kinase inhibitor library screening, IGR37 XP, 1μΜ: 95.0
[8]; 1μΜ, 72 h, in %
  Cell viability in kinase inhibitor library screening, 501Mel XP, 1μΜ: 54.3
[8]; 10μΜ, 72 h, in %
  Cell viability in kinase inhibitor library screening, 501Mel XP, 10μΜ: 40.7
[9]; 10μΜ, 72 h
  Cell viability in kinase inhibitor library screening, A375 Parental, 10μΜ: 73.5
[9]; 1μΜ, 72 h
  Cell viability in kinase inhibitor library screening, A375 Parental, 1μΜ: 82.1

## C#Cc1cccc(Nc2ncnc3cc(OCCOC)c(OCCO)cc23)c1 [Desmethyl Erlotinib (CP-473420)]
[1]; 1μΜ, 72 h, in %
  cell viability, A375 XP, 1μΜ: 100.2
[1]; 10μΜ, 72 h, in %
  cell viability, A375 XP, 10μΜ: 81.3
[2]; 10μΜ, 72 h, in %
  cell viability, A375 GP, 10μΜ: 65.7
[3]; 1μΜ, 72 h, in %
  cell viability, IGR37 Parental, 1μΜ: 99.9
[3]; 10μΜ, 72 h, in %
  cell viability, IGR37 Parental, 10μΜ: 92.4
[4]; 1μΜ, 72 h, in %
  cell viability, 501Mel GP, 1μΜ: 107.4
[4]; 10μΜ, 72 h, in %
  cell viability, 501Mel GP, 10μΜ: 74.9
[5]; 10μΜ, 72 h
  cell viability, IGR37 GP, 10μΜ: 73.5%
[5]; 1μΜ, 72 h, in %
  cell viability, IGR37 GP, 1μΜ: 85.7
[6]; 10μΜ, 72 h, in %
  cell viability, 501Mel Parental, 10μΜ: 82.4
[7]; 10μΜ, 72 h
  cell viability, IGR37 XP, 10μΜ: 49.7%
[7]; 1μΜ, 72 h, in %
  cell viability, IGR37 XP, 1μΜ: 80.3
[8]; 1μΜ, 72 h, in %
  cell viability, 501Mel XP, 1μΜ: 100.0
[8]; 10μΜ, 72 h, in %
  cell viability, 501Mel XP, 10μΜ: 41.7
[9]; 1μΜ, 72 h, in %
  cell viability, A375 Parental, 1μΜ: 104.3
[9]; 10μΜ, 72 h, in %
  cell viability, A375 Parental, 10μΜ: 78.2

## CCc1cnn2c(NCc3ccc[n+]([O-])c3)cc(N3CCCC[C@H]3CCO)nc12 [Dinaciclib (SCH727965)]
[1]; 1μΜ, 72 h
  cell viability (kinase inhibitor library screening): 11.5%
[1]; 10μΜ, 72 h
  cell viability (kinase inhibitor library screening): 8.1%
[2]; 1μΜ, 72 h
  cell viability (kinase inhibitor library screening): 10.0%
[2]; 10μΜ, 72 h
  cell viability (kinase inhibitor library screening): 6.1%
[3]; 1μΜ, 72 h
  cell viability (kinase inhibitor library screening): 4.4%
[3]; 10μΜ, 72 h
  cell viability (kinase inhibitor library screening): 2.8%
[4]; 1μΜ, 72 h
  cell viability (kinase inhibitor library screening): 0.636%
[4]; 10μΜ, 72 h
  cell viability (kinase inhibitor library screening): 0.422%
[5]; 1μΜ, 72 h
  cell viability (kinase inhibitor library screening): 4.4%
[5]; 10μΜ, 72 h
  cell viability (kinase inhibitor library screening): 2.3%
[6]; 1μΜ, 72 h
  cell viability (kinase inhibitor library screening): 1.5%
[6]; 10μΜ, 72 h
  cell viability (kinase inhibitor library screening): 1.3%
[7]; 1μΜ, 72 h
  cell viability (kinase inhibitor library screening): 3.1%
[7]; 10μΜ, 72 h
  cell viability (kinase inhibitor library screening): 2.6%
[8]; 1μΜ, 72 h
  cell viability (kinase inhibitor library screening): 0.85%
[8]; 10μΜ, 72 h
  cell viability (kinase inhibitor library screening): 0.249%
[9]; 10μΜ, 72 h
  cell viability (kinase inhibitor library screening): 10.7%
[9]; 1μΜ, 72 h
  cell viability (kinase inhibitor library screening): 10.8%

## CN1CCN(c2ccc3nc(-c4c(N)c5c(F)cccc5[nH]c4=O)[nH]c3c2)CC1 [Dovitinib (TKI-258)]
[1]; 1μΜ, 72 h, in %
  cell viability, A375 XP, 1μΜ: 97.7
[1]; 10μΜ, 72 h, in %
  cell viability, A375 XP, 10μΜ: 58.3
[2]; 1μΜ, 72 h, in %
  cell viability, A375 GP, 1μΜ: 93.5
[2]; 10μΜ, 72 h, in %
  cell viability, A375 GP, 10μΜ: 42.2
[3]; 1μΜ, 72 h, in %
  cell viability, IGR37 Parental, 1μΜ: 96.1
[3]; 10μΜ, 72 h, in %
  cell viability, IGR37 Parental, 10μΜ: 64.0
[4]; 1μΜ, 72 h, in %
  cell viability, 501Mel GP, 1μΜ: 95.0
[4]; 10μΜ, 72 h, in %
  cell viability, 501Mel GP, 10μΜ: -0.1
[5]; 10μΜ, 72 h
  cell viability, IGR37 GP, 10μΜ: 42.8%
[5]; 1μΜ, 72 h, in %
  cell viability, IGR37 GP, 1μΜ: 99.9
[6]; 1μΜ, 72 h, in %
  cell viability, 501Mel Parental, 1μΜ: 103.1
[6]; 10μΜ, 72 h, in %
  cell viability, 501Mel Parental, 10μΜ: 0.6
[7]; 10μΜ, 72 h
  cell viability, IGR37 XP, 10μΜ: 22.5%
[7]; 1μΜ, 72 h, in %
  cell viability, IGR37 XP, 1μΜ: 102.6
[8]; 1μΜ, 72 h, in %
  cell viability, 501Mel XP, 1μΜ: 87.1
[8]; 10μΜ, 72 h, in %
  cell viability, 501Mel XP, 10μΜ: -0.0348
[9]; 1μΜ, 72 h, in %
  cell viability, A375 Parental, 1μΜ: 102.8
[9]; 10μΜ, 72 h, in %
  cell viability, A375 Parental, 10μΜ: 47.2

## COc1cc2nccc(Oc3ccc(NC(=O)NC4CC4)c(Cl)c3)c2cc1C(N)=O [E7080 (Lenvatinib)]
[1]; 10μΜ, in %
  cell viability (kinase inhibitor library screening): 109.2
[2]; 10μΜ, in %
  cell viability (kinase inhibitor library screening): 94.8
[3]; 1μΜ, in %
  cell viability (kinase inhibitor library screening): 102.9
[3]; 10μΜ, in %
  cell viability (kinase inhibitor library screening): 104.3
[4]; 1μΜ, in %
  cell viability (kinase inhibitor library screening): 106.1
[4]; 10μΜ, in %
  cell viability (kinase inhibitor library screening): 90.9
[5]; 1μΜ, in %
  cell viability (kinase inhibitor library screening): 97.5
[5]; 10μΜ, in %
  cell viability (kinase inhibitor library screening): 86.5
[6]; 1μΜ, in %
  cell viability (kinase inhibitor library screening): 106.1
[6]; 10μΜ, in %
  cell viability (kinase inhibitor library screening): 105.7
[7]; 1μΜ, in %
  cell viability (kinase inhibitor library screening): 97.7
[7]; 10μΜ, in %
  cell viability (kinase inhibitor library screening): 58.8
[8]; 1μΜ, in %
  cell viability (kinase inhibitor library screening): 98.9
[8]; 10μΜ, in %
  cell viability (kinase inhibitor library screening): 87.0
[9]; 1μΜ, in %
  cell viability (kinase inhibitor library screening): 103.7
[9]; 10μΜ, in %
  cell viability (kinase inhibitor library screening): 95.8
